Data as given in PMC5487340, “Peptides derived from MARCKS block coagulation complex assembly on phosphatidylserine” (Scientific Reports, 2017).

Columns and labels:
[1] = system: prothrombinase (bovine FXa and FVa) on washed human platelets activated by convulxin and thrombin; experiment: Platelet-dependent prothrombinase assay; format: biochemical; conditions: 1 μM, washed human platelets with convulxin and thrombin, thrombin Vmax with S-2238, n = 8
Experimental: Human whole blood was collected from healthy volunteers by venipuncture into 3.2% sodium citrate. Washed platelets were prepared from whole blood collected by venipuncture into 3.8% sodium citrate and acid-citrate-dextrose (ACD). Platelet-rich plasma (PRP) was prepared by centrifugation of whole blood at 200 g for 20 min. Platelets were isolated from the PRP by centrifugation at 1000 g for 10 min with 0.1 μg ml^−1 prostacyclin (PGI2) (Sigma-Aldrich). The resulting pellet was resuspended with modified Tyrode’s buffer (129 mM NaCl, 20 mM HEPES, 12 mM NaHCO3, 2.9 mM KCl, 1.0 mM MgCl2, 0.34 mM Na2HPO4, 5 mM glucose, pH 7.3), ACD, and 0.1 μg ml^−1 PGI2. Platelets were then washed by re-pelleting at 1000 g for 10 min and re-suspending with modified Tyrode’s buffer.
Effects on coagulation factor enzymatic activity were determined using a modification of a previously described prothrombinase assay, [55]. Washed human platelets (8 × 10^5 reaction^−1) were incubated at 37 °C with either a buffer blank or 375 ng ml^−1 convulxin (Centerchem, Norwalk, CT) and 5.0 nM thrombin (Haematologic Technologies) in modified Tyrode’s buffer containing 2.9 mM CaCl2 and 0.05% wt vol^−1 fatty acid-free bovine serum albumin (BSA). After 7 min, 1 μM investigational peptide or protein, or a buffer blank, was added, followed 3 min later by bovine FXa (3 nM) and FVa (6 nM) (Haematologic Technologies). […]

[2] = system: fibrin formation in whole human blood; experiment: Whole blood microfluidic flow assay; format: cell-based; conditions: whole human blood over collagen, 10 min, wall shear rate 100 s^-1, 1 μM peptide or annexin V, heparin 15 USP ml^-1, n = 6
Description: Effects on whole blood platelet activation and accumulation, as well as fibrin formation, were examined using a modification of a previously described microfluidic flow assay. A custom polydimethylsiloxane microfluidic flow device containing four channels, each with a height of 100 μm and width of 500 μm, was vacuum mounted to a glass slide patterned with a type I fibrillar collagen strip (Chrono-log). The microfluidic flow device channels were oriented perpendicular to the patterned collagen strip, resulting in a 50 μm patch of collagen across the width of each channel. Whole blood was labeled with a Pacific Blue anti-human CD41 antibody (BioLegend) for 10 min, followed by the addition of 30 μg ml^−1 Alexa Fluor 647 human plasma fibrinogen conjugate (Life Technologies) and either 1 μM NBD labeled investigational peptide, 1 μM annexin V (BioVision), or 15 USP ml^−1 heparin. Immediately before the assay, the whole blood mixture was recalcified to 7.5 mM CaCl2. The whole blood was then pulled through the device channels for 10 min at wall shear rate 100 s^−1 using a PhD Ultra syringe pump (Harvard Apparatus, Holliston, MA). […] Fluorescence intensities and platelet surface area coverages were measured using ImageJ (NIH, Bethesda, MD). […]

[3] = system: P-selectin positive platelets; experiment: Flow cytometry of binding to platelets; format: cell-based; conditions: washed human platelets, 1 μM NBD labeled peptide, 30 min, n = 6
Experimental: Human whole blood was collected from healthy volunteers by venipuncture into 3.2% sodium citrate. Washed platelets were prepared from whole blood collected by venipuncture into 3.8% sodium citrate and acid-citrate-dextrose (ACD). Platelet-rich plasma (PRP) was prepared by centrifugation of whole blood at 200 g for 20 min. Platelets were isolated from the PRP by centrifugation at 1000 g for 10 min with 0.1 μg ml^−1 prostacyclin (PGI2) (Sigma-Aldrich). The resulting pellet was resuspended with modified Tyrode’s buffer (129 mM NaCl, 20 mM HEPES, 12 mM NaHCO3, 2.9 mM KCl, 1.0 mM MgCl2, 0.34 mM Na2HPO4, 5 mM glucose, pH 7.3), ACD, and 0.1 μg ml^−1 PGI2. Platelets were then washed by re-pelleting at 1000 g for 10 min and re-suspending with modified Tyrode’s buffer. Washed platelets were obtained from the whole blood as described above. The platelets were resuspended in modified Tyrode’s buffer containing 2 mM CaCl2, counted, and diluted to 2 × 10^4 platelets μL^−1. Platelets were stimulated with either 1 IU ml^−1 thrombin (Chrono-log, Havertown, PA), 250 ng ml^−1 convulxin (Centerchem), 1 IU ml^−1 thrombin and 250 ng ml^−1 convulxin, or left unstimulated for 10 min at room temperature. […] The samples were then immediately fixed in 1% paraformaldehyde, diluted, and analyzed on a MoFlo Astrios EQ flow cytometer (Beckman Coulter, Brea, CA) with appropriate color compensation.

Row | Molecule | reduction in prothrombinase activity [1] [%] | fibrin formation on adherent platelets (in words) [2] | labeling of unstimulated platelets [3]
1 | H-GGDYDKIGKNDA-NH2 [C2BL3-L, NH2-GGDYDKIGKNDA-CONH2] | 17 |  | 
2 | heparin |  | equivalent fibrin formation inhibition to that of the MARCKS ED peptides | 
3 | annexin V: PS binding protein, positive control (protein) MAQVLRGTVTDFPGFDERADAETLRKAMKGLGTDEESILTLLTSRSNAQRQEISAAFKTLFGRDLLDDLKSELTGKFEKLIVALMKPSRLYDAYELKHALKGAGTNEKVLTEIIASRTPEELRAIKQVYEEEYGSSLEDDVVGDTSGYYQRMLVVLLQANRDPDAGIDEAQVEQDAQALFQAGELKWGTDEEKFITIFGTRSVSHLRKVFDKYMTISGFQIEETIDRETSGNLEQLLLAVVKSIRSIPAYLAETLYYAMKGAGTDDHTLIRVMVSRSEIDLFNIRKEFRKNFATSLYSMIKGDTSGDYKKALLLLCGEDD |  | equivalent fibrin formation inhibition to that of the MARCKS ED peptides | Neither D-MARCKS ED nor annexin V labeled the unstimulated platelets
